# From paper PMC6829536 (International Journal of Molecular Sciences, 2019)
# What was measured:
# WT CaFADS [1] = target: T1, WT CaFADS (Corynebacterium ammoniagenes, UniProt Q59263); experiment: Isothermal titration calorimetry (ITC) of ligand binding at the FMNAT site; conditions: 20 mM PIPES
# T1 construct: made in house; host or cells: Escherichia coli
# P56W CaFADS = target: T2, P56W CaFADS (Corynebacterium ammoniagenes, UniProt Q59263, P56W); experiment: as above; conditions: for -TΔS / ΔH / ΔG: P56W CaFADS, 20 mM PIPES
# T2 construct: made in house; host or cells: E. coli BL21(DE3)
# P58W CaFADS = target: T3, P58W CaFADS (Corynebacterium ammoniagenes, UniProt Q59263, P58W); experiment: as above; conditions: 20 mM PIPES
# T3 construct: made in house; host or cells: E. coli BL21(DE3)
# P56A/P58A CaFADS = target: T4, P56A/P58A CaFADS (Corynebacterium ammoniagenes, UniProt Q59263, P56A/P58A); experiment: as above; conditions: 20 mM PIPES
# T4 construct: made in house; host or cells: E. coli BL21(DE3)
# L98A CaFADS = target: T5, L98A CaFADS (Corynebacterium ammoniagenes, UniProt Q59263, L98A); experiment: as above; conditions: 20 mM PIPES
# T5 construct: made in house; host or cells: E. coli BL21(DE3)
# L98K CaFADS = target: T6, L98K CaFADS (Corynebacterium ammoniagenes, UniProt Q59263, L98K); experiment: as above; conditions: 20 mM PIPES, pH 7.0, no MgCl2
# T6 construct: made in house; host or cells: E. coli BL21(DE3)
# L98W CaFADS = target: T7, L98W CaFADS (Corynebacterium ammoniagenes, UniProt Q59263, L98W); experiment: as above; conditions: 20 mM PIPES
# T7 construct: made in house; host or cells: E. coli BL21(DE3)
# WT CaFADS [2] = target: T1, WT CaFADS; conditions: cited from earlier work
# CaFADS variants [3] = experiment: Difference spectroscopy of flavin binding at the FMNAT site; set-up: species or system Corynebacterium ammoniagenes; conditions: all variants, 20 mM PIPES, 10 mM MgCl2, pH 7.0, 25 °C
# Method: Spectroscopic measurements were carried out following previously established conditions and protocols. UV–visible absorption spectra were recorded in a Cary 100 spectrophotometer (Agilent Technologies, Santa Clara, CA, USA). Experimental extinction coefficients at 279 nm (ε^279) for each variant were determined based on the Gill and von Hippel method. In short, the UV–visible absorbance spectrum of the protein was recorded. Then samples were denatured with guanidinium hydrochloride (6 M in 20 mM sodium phosphate, pH 6.5). Then, the absorbance spectrum of the denatured sample was recorded and its concentration was calculated considering the theoretical extinction coefficient determined using the amino acid sequence. This concentration, taking into account the protein dilution in the denaturation process, was then used to determine ε^279 at the protein maximum by using the native protein spectrum before denaturation. Difference spectroscopy measurements were carried out in 20 mM PIPES, 10 mM MgCl2, pH 7.0, with saturating concentrations of ligands. Circular dichroism (CD) spectra were recorded using a Chirascan spectropolarimeter (Appl. Phot. Ltd., Leatherhead, Surrey, UK) at 25 °C. […]
# CaFADS variants [4] = experiment: Qualitative detection of RFK, FMNAT and FADpp activities by TLC; format: biochemical, Corynebacterium ammoniagenes; conditions: all variants, 200 nM enzyme, 50 μM flavin, 0.2 mM ATP, 10 mM MgCl2, pH 7.0, 30 min and 2 h
# Method: RFK and FMNAT activities were qualitatively assayed by the incubation of enzymes with substrates and separation of flavins (substrates and products) from reaction mixtures using TLC on Silica Gel SIL-G-25 plates (20 × 20 cm, thickness 0.25 mm) as previously described. […] Reactions were stopped by boiling the preparations for 5 min. Flavin spots were visualized under UV light.
# [5] = tested on: Cc1cc2nc3c(=O)[nH]c(=O)nc-3n(C[C@H](O)[C@H](O)[C@H](O)CO)c2cc1C; experiment: purified protein, by the assay type; format: biochemical, Corynebacterium ammoniagenes; conditions: RF varied, saturating ATP, apparent value, 20 mM PIPES, 0.8 mM MgCl2, pH 7.0, 25 °C
# Method: Reactions were initiated by the addition of ~20 nM of enzyme. After 1 min incubation at 25 °C, the reactions were stopped by boiling the mixtures for 5 min. The composition of flavins in the supernatant was determined using an Alliance HPLC system (Waters, Milford, MA, USA) equipped with a 2707 autosampler and a HSST3 column (4.6 × 150 mm, 3.5 µm, Waters) preceded by a pre-column (4.6 × 20 mm, 3.5 µm, Waters). The chromatography was developed at 1 mL/min with a 6 min isocratic program of methanol 40% (v/v) in 5 mM ammonium acetate (pH 6.0). Detection of flavins was carried out using a 2475 Multi λ fluorescence detector (Waters), excitation wavelength of 470 nm and emission wavelength of 530 nm. […] The flavinic products of the reaction were identified by their retention times and quantified through their corresponding standard curves obtained under the same conditions. Controls containing free flavins in the absence of the enzyme were treated similarly to reaction samples to discard flavin degradation during RFK activity determination. […] In case of inhibition, the experimental data were fitted to a model describing the substrate inhibition of a bi-substrate mechanism. In these situations, errors in apparent Km and kcat (^appKm and ^appkcat) increased with the inhibition constant (Ki) value getting closer to Km^S. Reaction mixtures were evaluated in triplicates, and final results are expressed as the standard error of the fitted value (value ± SE).
# [6] = 10 mM MgCl2, pH 7.0, n.d. = no interaction profile was detected
compound,measurement,setting,value
"Nc1ncnc2c1ncn2[C@@H]1O[C@H](COP(=O)(O)OP(=O)(O)OP(=O)(O)O)[C@@H](O)[C@H]1O [ATP, Adenosine 5′-triphosphate]",-TΔS,"WT CaFADS [1]; pH 7.0, no MgCl2",39 ± 6 kcal/mol
same,ΔH,"WT CaFADS [1]; pH 7.0, no MgCl2",-44 ± 6 kcal/mol
same,-TΔS,"P56W CaFADS; pH 7.0, no MgCl2",11 ± 2 kcal/mol
same,ΔH,"P56W CaFADS; pH 7.0, no MgCl2",-16 ± 3 kcal/mol
same,-TΔS,"P58W CaFADS; pH 7.0, no MgCl2",-3.8 ± 0.1 kcal/mol
same,ΔG,"P58W CaFADS; pH 7.0, no MgCl2",-6.5 ± 0.1 kcal/mol
same,ΔH,"P58W CaFADS; pH 7.0, no MgCl2",-2.7 ± 0.1 kcal/mol
same,-TΔS,"P56A/P58A CaFADS; pH 7.0, no MgCl2",-3.6 ± 0.2 kcal/mol
same,ΔG,"P56A/P58A CaFADS; pH 7.0, no MgCl2",-6.4 ± 0.1 kcal/mol
same,ΔH,"P56A/P58A CaFADS; pH 7.0, no MgCl2",-2.8 ± 0.2 kcal/mol
same,-TΔS,"L98A CaFADS; pH 7.0, no MgCl2",15 ± 2 kcal/mol
same,ΔG,"L98A CaFADS; pH 7.0, no MgCl2",-5.6 ± 0.1 kcal/mol
same,ΔH,"L98A CaFADS; pH 7.0, no MgCl2",-20 ± 3 kcal/mol
same,-TΔS,L98K CaFADS,33 ± 19 kcal/mol
same,ΔG,L98K CaFADS,-5.6 ± 0.2 kcal/mol
same,ΔH,L98K CaFADS,-39 ± 19 kcal/mol
same,-TΔS,"L98W CaFADS; pH 7.0, no MgCl2",26 ± 6 kcal/mol
same,ΔH,"L98W CaFADS; pH 7.0, no MgCl2",-32 ± 6 kcal/mol
same,kcat,"WT CaFADS [2]; ATP varied, RF at ~80% of maximum activity, apparent value, 20 mM PIPES, 0.8 mM MgCl2, pH 7.0, 25 °C",2.58 ± 0.083 s⁻¹
same,Km,"WT CaFADS [2]; read-out: Km^ATP, ATP varied, RF at ~80% of maximum activity, 20 mM PIPES, 0.8 mM MgCl2, pH 7.0, 25 °C",28 ± 4 µM
"Cc1cc2nc3c(=O)[nH]c(=O)nc-3n(C[C@H](O)[C@H](O)[C@H](O)COP(=O)(O)OP(=O)(O)OC[C@H]3O[C@@H](n4cnc5c(N)ncnc54)[C@H](O)[C@@H]3O)c2cc1C [FAD, Riboflavin 5′-adenosine diphosphate]",-TΔS,"WT CaFADS [1]; 10 mM MgCl2, pH 7.0",18 ± 1 kcal/mol
same,ΔH,"WT CaFADS [1]; 10 mM MgCl2, pH 7.0",-26 ± 1 kcal/mol
same,-TΔS,"P56W CaFADS; 10 mM MgCl2, pH 7.0",-6.1 ± 0.1 kcal/mol
same,ΔG,"P56W CaFADS; 10 mM MgCl2, pH 7.0",-6.9 ± 0.1 kcal/mol
same,ΔH,"P56W CaFADS; 10 mM MgCl2, pH 7.0",-0.9 ± 0.1 kcal/mol
same,-TΔS,"P58W CaFADS; 10 mM MgCl2, pH 7.0",-7.0 ± 0.1 kcal/mol
same,ΔG,"P58W CaFADS; 10 mM MgCl2, pH 7.0",-7.6 ± 0.1 kcal/mol
same,ΔH,"P58W CaFADS; 10 mM MgCl2, pH 7.0",-0.56 ± 0.02 kcal/mol
same,-TΔS,"P56A/P58A CaFADS; 10 mM MgCl2, pH 7.0",-7.4 ± 0.1 kcal/mol
same,ΔG,"P56A/P58A CaFADS; 10 mM MgCl2, pH 7.0",-7.8 ± 0.1 kcal/mol
same,ΔH,"P56A/P58A CaFADS; 10 mM MgCl2, pH 7.0",-0.39 ± 0.1 kcal/mol
same,-TΔS,"L98W CaFADS; 10 mM MgCl2, pH 7.0",-6.9 ± 0.1 kcal/mol
same,ΔG,"L98W CaFADS; 10 mM MgCl2, pH 7.0",-7.4 ± 0.1 kcal/mol
same,ΔH,"L98W CaFADS; 10 mM MgCl2, pH 7.0",-0.6 ± 0.1 kcal/mol
same,difference spectra on titration with FAD,CaFADS variants [3]; saturating FAD,hardly produced difference spectra
"Cc1cc2nc3c(=O)[nH]c(=O)nc-3n(C[C@H](O)[C@H](O)[C@H](O)COP(=O)(O)O)c2cc1C [FMN, Riboflavin 5′-phosphate]",-TΔS,"WT CaFADS [1]; 10 mM MgCl2, pH 7.0",15 ± 1 kcal/mol
same,ΔH,"WT CaFADS [1]; 10 mM MgCl2, pH 7.0",-22 ± 1 kcal/mol
same,Kd^FMN lower than WT,P56W CaFADS; P56W CaFADS vs WT,up to 4 fold
same,-TΔS,"P56W CaFADS; 10 mM MgCl2, pH 7.0",-6.5 ± 0.1 kcal/mol
same,ΔG,"P56W CaFADS; 10 mM MgCl2, pH 7.0",-7.9 ± 0.1 kcal/mol
same,ΔH,"P56W CaFADS; 10 mM MgCl2, pH 7.0",-1.4 ± 0.1 kcal/mol
same,-TΔS,"P58W CaFADS; 10 mM MgCl2, pH 7.0",-7.3 ± 0.1 kcal/mol
same,ΔG,"P58W CaFADS; 10 mM MgCl2, pH 7.0",-8.6 ± 0.1 kcal/mol
same,ΔH,"P58W CaFADS; 10 mM MgCl2, pH 7.0",-1.3 ± 0.1 kcal/mol
same,ΔG,"P56A/P58A CaFADS; 10 mM MgCl2, pH 7.0",-8.8 ± 0.1 kcal/mol
same,ΔH,"P56A/P58A CaFADS; 10 mM MgCl2, pH 7.0",-1.8 ± 0.1 kcal/mol
same,-TΔS,L98A CaFADS; [6],-7.9 ± 0.1 kcal/mol
same,ΔG,L98A CaFADS; [6],-9.0 ± 0.1 kcal/mol
same,ΔH,L98A CaFADS; [6],-1.2 ± 0.1 kcal/mol
same,-TΔS,"L98W CaFADS; 10 mM MgCl2, pH 7.0",-7.2 ± 0.1 kcal/mol
same,ΔG,"L98W CaFADS; 10 mM MgCl2, pH 7.0",-8.7 ± 0.1 kcal/mol
same,ΔH,"L98W CaFADS; 10 mM MgCl2, pH 7.0",-1.5 ± 0.1 kcal/mol
same,"FMNAT activity (transformation of FMN into FAD), qualitative",CaFADS variants [4],none of the variants was neither capable of catalyzing the transformation of FMN into FAD
same,difference spectra after incubation with FMN,CaFADS variants [3]; saturating FMN,All the variants produced difference spectra
L98A CaFADS (Corynebacterium ammoniagenes; L98A),Km,[5]; other: L98A CaFADS,1.5 ± 0.7 µM
L98K CaFADS (Corynebacterium ammoniagenes; L98K),Km,[5]; other: L98K CaFADS,4.0 ± 1.1 µM
L98W CaFADS (Corynebacterium ammoniagenes; L98W),Km,[5]; other: L98W CaFADS,1.6 ± 0.6 µM
P56A/P58A CaFADS (Corynebacterium ammoniagenes; P56A/P58A),Km,[5]; other: P56A/P58A CaFADS,0.9 ± 0.4 µM
P56W CaFADS (Corynebacterium ammoniagenes; P56W),Km,[5]; other: P56W CaFADS,0.4 ± 0.1 µM
P58W CaFADS (Corynebacterium ammoniagenes; P58W),Km,[5]; other: P58W CaFADS,1.3 ± 0.7 µM
